Experimental data published in patent publication US11946094B2, “Combination therapies and methods of use thereof” (Augusta University Research Institute, Inc., priority 2017, dated 2024).

test system: OVCAR-8 cells; assay: Drug-siRNA combination screen: 346-compound anticancer library at 100 nM, CCK-8 viability; settings: not given

| Molecule | Score (sum of observed SD values for 18 genes) [SD] |
| --- | --- |
| Cc1ccc(C(=O)Nc2ccc(CN3CCN(C)CC3)c(C(F)(F)F)c2)cc1C#Cc1cnc2cccnn12 [Ponatinib] | −28.62 |

same assay, conditions: OVCAR-8; 12 tested HDACi

| Molecule | number of tested HDACi highly synergistic with the gene knockdown |
| --- | --- |
| USP40: siRNA knocking down USP40; sense GGAAACUAGCUGUUAUACAtt (SEQ ID NO 35) (sense GGAAACUAGCUGUUAUACANN; antisense UGUAUAACAGCUAGUUUCCNN; listed as RNA, chemistry not given here) | at least six |

same assay, conditions: OVCAR-8; 346 compounds

| Molecule | number of antagonistic/additive or highly antagonistic compounds with the gene knockdown |
| --- | --- |
| USP40: siRNA knocking down USP40; sense GGAAACUAGCUGUUAUACAtt (SEQ ID NO 35) (sense GGAAACUAGCUGUUAUACANN; antisense UGUAUAACAGCUAGUUUCCNN; listed as RNA, chemistry not given here) | Twelve or fewer |

same assay, conditions: OVCAR-8; drug 100 nM plus siRNA knockdown of each of 18 genes; distance VAB−VA×VB in SD; single gene contributes at most +5 / −5; negative = synergy, positive = antagonism

| Molecule | Score (sum of observed SD values for 18 genes) [SD] |
| --- | --- |
| COc1cc(Nc2c(C#N)cnc3cc(OCCCN4CCN(C)CC4)c(OC)cc23)c(Cl)cc1Cl [Bosutinib] | −23.5 |
| C=CC(=O)Nc1cccc(Oc2nc(Nc3ccc(N4CCN(C)CC4)cc3OC)ncc2Cl)c1 [WZ4002] | −41.61 |
| CC(/C=C/C(=O)NO)=C\[C@@H](C)C(=O)c1ccc(N(C)C)cc1 [Trichostatin A] | −38.93 |
| Cn1cc(-c2ccc3nnc(Sc4ccc5ncccc5c4)n3n2)cn1 [SGX-523] | −8.5 |
| CS(=O)(=O)N1CCc2c(-c3cnc(N)nc3)nc(N3CCOCC3)nc21 [CH5132799] | 15.96 |
| CCOc1ccc(Cc2cc([C@@H]3O[C@H](CO)[C@@H](O)[C@H](O)[C@H]3O)ccc2Cl)cc1 [Dapagliflozin] | −15.72 |
| C[C@@H](O[C@H]1OCCN(Cc2n[nH]c(=O)[nH]2)[C@H]1c1ccc(F)cc1)c1cc(C(F)(F)F)cc(C(F)(F)F)c1 [Aprepitant] | −23.29 |
| CC[C@@H](C(=O)[C@@H](C)[C@@H](O)[C@H](C)[C@@H]1O[C@@H]([C@@H](CC)C(=O)O)CC[C@@H]1C)[C@H]1O[C@]2(C=C[C@@H](O)[C@]3(CC[C@@](C)([C@H]4CC[C@](O)(CC)[C@H](C)O4)O3)O2)[C@H](C)C[C@@H]1C [Salinomycin] | −21.61 |
| NCCC(O)(P(=O)(O)O)P(=O)(O)O [Pamidronate Disodium] | −2.39 |
| C[C@]12CCC(=O)C(O)=C1CC[C@@H]1[C@@H]2CC[C@]2(C)C(=O)CC[C@@H]12 [Formestane] | −14.97 |
| CCOc1ccn(-c2ccc(F)cc2)c(=O)c1C(=O)Nc1ccc(Oc2ccnc(N)c2Cl)c(F)c1 [BMS 777607] | −14.73 |
| CC(c1cc2ccccc2s1)N(O)C(N)=O (stereo not drawn) [Zileuton] | −19.64 |
| Nc1ccc(C(=O)Nc2cccc(-c3nc(N4CCOCC4)c4oc5ncccc5c4n3)c2)cn1 [YM201636] | −32.89 |
| N.N.O=C([O-])C1(C(=O)[O-])CCC1.[Pt+2] [Carboplatin] | −24.62 |
| Cc1ccc(F)c(NC(=O)Nc2ccc(-c3cccc4[nH]nc(N)c34)cc2)c1 [Linifanib] | −25.28 |
| O=C(O[C@@H]1Cc2c(O)cc(O)cc2O[C@@H]1c1cc(O)c(O)c(O)c1)c1cc(O)c(O)c(O)c1 [Epigallocatechin gallate] | 3.64 |
| COc1cc2nccc(Oc3ccc(NC(=O)NC4CC4)c(Cl)c3)c2cc1C(N)=O [Lenvatinib] | −27.5 |
| CC1(COc2ccc3c(c2)ncn3-c2ccc3cccc(N4CCC(N)CC4)c3n2)COC1 [Crenolanib] | −18.09 |
| O=C(c1cc(Cc2n[nH]c(=O)c3ccccc23)ccc1F)N1CCN(C(=O)C2CC2)CC1 [Olaparib] | −19.18 |

| Molecule | Score (sum of observed SD values for 18 genes) [SD] |
| --- | --- |
| C[C@H](NC(=O)Cc1cc(F)cc(F)c1)C(=O)N[C@H](C(=O)OC(C)(C)C)c1ccccc1 [DAPT-(GSI-IX)] | 12.69 |
| Cn1cnc([N+](=O)[O-])c1Sc1ncnc2nc[nH]c12 [Azathioprine] | −28.48 |
| Cc1ccc(S(=O)(=O)/C=C/C#N)cc1 [BAY 11-7082] | −5.7 |
| CCC(CC)CC1(C(=O)Nc2ccccc2SC(=O)C(C)C)CCCCC1 [Dalcetrapid] | −31.1 |
| CCN1CCN(Cc2ccc(-c3cc4c(N[C@H](C)c5ccccc5)ncnc4[nH]3)cc2)CC1 [NVP-AEE788] | −41.08 |
| Cc1nc2ccc(CN(C)c3ccc(C(=O)N[C@@H](CCC(=O)O)C(=O)O)s3)cc2c(=O)[nH]1 [Raltitrexed] | 44.53 |
| Cl.O=C(O)Cc1cccc(OCCCN(Cc2cccc(C(F)(F)F)c2Cl)CC(c2ccccc2)c2ccccc2)c1 [GW3965 HCI] | −11.35 |
| COc1ccc2c(c1OC)N=C(NC(=O)c1cccnc1)N1CCN=C21 [PIK-90] | −44.52 |
| Cn1cnc2c(F)c(Nc3ccc(Br)cc3Cl)c(C(=O)NOCCO)cc21 [Selumetinib] | -63.99 |
| COc1cc2c(cc1O)CC[C@@H]1[C@@H]2CC[C@]2(C)[C@@H](O)CC[C@@H]12 [2-Methoxyestradiol] | −31.84 |
| Cn1c(=O)n(-c2ccc(C(C)(C)C#N)cc2)c2c3cc(-c4cnc5ccccc5c4)ccc3ncc21 [BEZ235] | −35.65 |
| COc1c(C)c2c(c(O)c1C/C=C(\C)CCC(=O)OCCN1CCOCC1)C(=O)OC2 [Mycophenolate mofetil] | −3.2 |
| Cc1cccc(-c2nn3c(c2-c2ccnc4ccc(C(N)=O)cc24)CCC3)n1 [LY2157299] | −0.82 |
| CO[C@H]1/C=C\C=C(/C)C(=O)NC2=CC(=O)C(NCCN(C)C)=C(C[C@@H](C)C[C@H](OC)[C@H](O)[C@@H](C)/C=C(\C)[C@@H]1OC(N)=O)C2=O.Cl [17 - DMAG HCI] | 19.7 |
| CN(C)C/C=C/C(=O)Nc1cc2c(Nc3ccc(F)c(Cl)c3)ncnc2cc1O[C@H]1CCOC1 [Afatinib] | -54.76 |
| CC(C)OC(=O)C1=CN(C(=O)c2ccc(F)c(F)c2)CC(C)(C)c2c1[nH]c1ccccc21 [WAY-362450] | −29.97 |
| Cc1ccc(NC(=O)c2cccc(C(C)(C)C#N)c2)cc1Nc1ccc2ncn(C)c(=O)c2c1 [AZ628] | −43.85 |
| Cn1cc(C2=C(c3cn(C4CCN(Cc5ccccn5)CC4)c4ccccc34)C(=O)NC2=O)c2ccccc21 [Enzastaurin] | −6.53 |
| Cc1nc(N)sc1-c1ccnc(Nc2ccc(N3CCOCC3)cc2)n1 [CYC116] | −28.81 |

| Molecule | Score (sum of observed SD values for 18 genes) [SD] |
| --- | --- |
| CCC[C@H](NC(=O)/C(C#N)=C/c1cccc(Br)n1)c1ccccc1 [WP1130] | 3.15 |
| O=c1cc(N2CCOCC2)oc2c(-c3cccc4c3sc3ccccc34)cccc12 [NU7441] | −10.42 |
| CN(C)CC[C@H](CSc1ccccc1)Nc1ccc(S(=O)(=O)NC(=O)c2ccc(N3CCN(Cc4ccccc4-c4ccc(Cl)cc4)CC3)cc2)cc1[N+](=O)[O-] [ABT-737] | −5.9 |
| CCCCCCNC(=O)n1cc(F)c(=O)[nH]c1=O [Carmofur] | −18.23 |
| C[C@]12C=CC(=O)C=C1CC[C@H]1[C@@H]3C[C@@H](O)[C@](O)(C(=O)CO)[C@@]3(C)C[C@H](O)[C@@]12F [Triamcinolone] | −26.66 |
| O=C(O)C(Cc1c[nH]c2ccccc12)N1C(=O)c2ccccc2C1=O (stereo not drawn) [RG108] | −0.52 |
| Cc1cc(Nc2cc(N3CCN(C)CC3)nc(/C=C/c3ccccc3)n2)n[nH]1 [ENMD-2076] | −47.04 |
| O=C(O)c1ccc2c(c1)nc(Nc1cccc(Cl)c1)c1ccncc12 [Silmitasertib] | −4.51 |
| C=CCn1c(=O)c2cnc(Nc3ccc(N4CCN(C)CC4)cc3)nc2n1-c1cccc(C(C)(C)O)n1 [MK-1775] | -64.04 |
| COc1ccc(Cl)c(Nc2nc3ccccc3nc2NS(=O)(=O)c2cccc(NC(=O)C(C)(C)N)c2)c1 [XL147] | −30.94 |
| O=C(Nc1ccccc1-c1cn2c(CN3CCNCC3)csc2n1)c1cnc2ccccc2n1 [SRT1720] | −34.27 |
| O=C(O)c1ccc(-c2c[nH]c3ncc(-c4ccccc4)cc23)cc1C1CCCC1 [GSK650394] | 12.12 |
| CC(C)C[C@H](NC(=O)[C@@H](O)[C@H](N)Cc1ccccc1)C(=O)O [Ubinimex] | −17.36 |
| Nc1cc(C(F)(F)F)c(-c2cc(N3CCOCC3)nc(N3CCOCC3)n2)cn1 [Buparlisib] | 8.79 |
| C=CCNC1=C2C[C@@H](C)C[C@H](OC)[C@H](O)[C@@H](C)/C=C(\C)[C@H](OC(N)=O)[C@@H](OC)/C=C\C=C(/C)C(=O)NC(=CC1=O)C2=O [17-AAG] | −6.69 |
| CS(=O)(=O)N1CCN(Cc2cc3nc(-c4cccc5[nH]ncc45)nc(N4CCOCC4)c3s2)CC1 [GDC-0941] | -58.02 |
| C/C(=C\c1csc(C)n1)[C@@H]1C[C@@H]2O[C@@H]2CCC[C@H](C)[C@H](O)[C@@H](C)C(=O)C(C)(C)[C@@H](O)CC(=O)O1 [Epothilone A] | 16.97 |
| C=CC(=O)N1CCC[C@@H](n2nc(-c3ccc(Oc4ccccc4)cc3)c3c(N)ncnc32)C1 [Ibrutinib] | -58.62 |

same assay, conditions: OVCAR-8; drug 100 nM; panel of 18 siRNA knockdowns

| Molecule | synergy / antagonism of drug with gene knockdowns, in words |
| --- | --- |
| CC(/C=C/C(=O)NO)=C\[C@@H](C)C(=O)c1ccc(N(C)C)cc1 [Trichostatin A] | mostly synergistic |
| Cc1ccc(NC(=O)c2cccc(C(C)(C)C#N)c2)cc1Nc1ccc2ncn(C)c(=O)c2c1 [AZ628] | synergistic with knockdown of ten genes |
| Cc1cc(Nc2cc(N3CCN(C)CC3)nc(/C=C/c3ccccc3)n2)n[nH]1 [ENMD-2076] | significant synergy |
| C=CCn1c(=O)c2cnc(Nc3ccc(N4CCN(C)CC4)cc3)nc2n1-c1cccc(C(C)(C)O)n1 [MK-1775] | Frequently among the top synergizing pairs |
| CS(=O)(=O)N1CCN(Cc2cc3nc(-c4cccc5[nH]ncc45)nc(N4CCOCC4)c3s2)CC1 [GDC-0941] | synergy to the vast majority of genes |

same assay, conditions: OVCAR-8; drug 100 nM; siRNA knockdown

| Molecule | number of genes (of 18) whose knockdown synergizes with the drug [genes] | number of genes (of 18) with high synergy with the drug [genes] |
| --- | --- | --- |
| Cn1cnc2c(F)c(Nc3ccc(Br)cc3Cl)c(C(=O)NOCCO)cc21 [Selumetinib] | 16 |  |
| C=CCn1c(=O)c2cnc(Nc3ccc(N4CCN(C)CC4)cc3)nc2n1-c1cccc(C(C)(C)O)n1 [MK-1775] |  | 13 |
